According to US20110269811A1, “INHIBITORS OF SEMICARBAZIDE-SENSITIVE AMINE OXIDASE (SSAO) AND VAP-1 MEDIATED ADHESION USEFUL FOR TREATMENT AND PREVENTION OF DISEASES” (priority 2006, published 2011):

What was measured:
5-HT7 (h) = biological target: T1, 5-HT7 (h) (Homo sapiens, UniProt P34969); test: Receptor binding screen, [^3H]LSD; conditions: 10 uM Concentration of Compound I-1-Z; read-out: Mean Value, percent inhibition of control specific binding: 5-HT7 (h)
T1 construct: expressed in transfected cells; host or cells: CHO cells
T1 sequence (P34969 whole entry): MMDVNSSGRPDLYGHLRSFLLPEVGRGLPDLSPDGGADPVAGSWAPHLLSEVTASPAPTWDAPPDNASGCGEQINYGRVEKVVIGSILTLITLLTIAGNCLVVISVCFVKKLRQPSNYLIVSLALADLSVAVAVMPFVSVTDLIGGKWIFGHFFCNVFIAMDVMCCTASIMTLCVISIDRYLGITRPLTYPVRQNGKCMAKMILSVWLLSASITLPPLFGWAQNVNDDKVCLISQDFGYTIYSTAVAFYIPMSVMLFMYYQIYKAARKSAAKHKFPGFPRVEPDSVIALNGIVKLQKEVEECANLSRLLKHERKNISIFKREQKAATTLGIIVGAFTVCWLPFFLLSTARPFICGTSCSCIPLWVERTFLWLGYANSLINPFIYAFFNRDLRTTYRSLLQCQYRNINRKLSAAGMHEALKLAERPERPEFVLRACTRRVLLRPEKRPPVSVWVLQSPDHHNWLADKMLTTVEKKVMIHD

ORL1 (h) (NOP) = biological target: T2, ORL1 (h) (NOP) (Homo sapiens, UniProt P41146); test: Receptor binding screen, [^3H]nociceptin; conditions: 10 uM Concentration of Compound I-1-Z; read-out: Mean Value, percent inhibition of control specific binding: ORL1 (h) (NOP)
T2 construct: expressed in transfected cells; host or cells: HEK-293 cells
T2 sequence (P41146 whole entry): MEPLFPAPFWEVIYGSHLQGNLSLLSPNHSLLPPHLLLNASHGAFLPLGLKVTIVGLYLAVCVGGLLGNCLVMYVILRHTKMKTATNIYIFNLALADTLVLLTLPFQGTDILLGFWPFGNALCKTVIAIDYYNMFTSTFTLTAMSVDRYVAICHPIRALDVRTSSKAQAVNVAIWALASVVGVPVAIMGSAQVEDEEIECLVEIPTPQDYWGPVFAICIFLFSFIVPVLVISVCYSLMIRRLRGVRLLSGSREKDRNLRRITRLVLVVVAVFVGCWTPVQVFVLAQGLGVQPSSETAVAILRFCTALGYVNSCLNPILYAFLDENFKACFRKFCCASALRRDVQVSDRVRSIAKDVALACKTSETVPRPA
Description: (§1) For Table 4 below, the specific ligand binding to the receptors is defined as the difference between the total binding and the nonspecific binding determined in the presence of an excess of unlabelled ligand. The results are expressed as a percent inhibition of control specific binding obtained in the presence of Compound I-1-Z. The IC50 values (concentration causing a half-maximal inhibition of control specific binding) and Hill coefficients (nH) were determined by non-linear regression analysis of the competition curves using Hill equation curve fitting. The inhibition constants (Ki) were calculated from the Cheng Prusoff equation (Ki=IC50/(1+(L/KD)), where L=concentration of radioligand in the assay, and KD=affinity of the radioligand for the receptor). In each experiment, the respective reference compound was tested concurrently with Compound I-1-Z in order to assess the assay suitability.

β1 (h) = biological target: T3, β1 (h) (Homo sapiens, UniProt P08588); test: Receptor binding screen, [^3H](−)CGP 12177; conditions: 10 uM Concentration of Compound I-1-Z; read-out: Mean Value, percent inhibition of control specific binding: β1 (h)
T3 construct: expressed in transfected cells; host or cells: HEK-293 cells
T3 sequence (P08588 whole entry): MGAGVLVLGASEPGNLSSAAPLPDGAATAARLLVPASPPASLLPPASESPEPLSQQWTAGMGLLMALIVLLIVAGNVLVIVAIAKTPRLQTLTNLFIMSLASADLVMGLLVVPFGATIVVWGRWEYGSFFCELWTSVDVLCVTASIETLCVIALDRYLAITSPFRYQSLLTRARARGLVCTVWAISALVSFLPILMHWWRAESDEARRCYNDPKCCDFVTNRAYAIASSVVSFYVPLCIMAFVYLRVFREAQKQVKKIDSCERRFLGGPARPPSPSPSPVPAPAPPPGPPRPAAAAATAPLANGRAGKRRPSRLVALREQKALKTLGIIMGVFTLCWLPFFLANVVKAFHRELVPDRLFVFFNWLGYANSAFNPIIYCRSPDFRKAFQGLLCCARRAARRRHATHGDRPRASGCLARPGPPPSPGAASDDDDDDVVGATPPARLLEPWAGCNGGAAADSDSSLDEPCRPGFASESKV

M5 (h) = biological target: T4, M5 (h) (Homo sapiens, UniProt P08912); test: Receptor binding screen, [^3H]4-DAMP; conditions: 10 uM Concentration of Compound I-1-Z; read-out: Mean Value, percent inhibition of control specific binding: M5 (h)
T4 construct: expressed in transfected cells; host or cells: CHO cells
T4 sequence (P08912 whole entry): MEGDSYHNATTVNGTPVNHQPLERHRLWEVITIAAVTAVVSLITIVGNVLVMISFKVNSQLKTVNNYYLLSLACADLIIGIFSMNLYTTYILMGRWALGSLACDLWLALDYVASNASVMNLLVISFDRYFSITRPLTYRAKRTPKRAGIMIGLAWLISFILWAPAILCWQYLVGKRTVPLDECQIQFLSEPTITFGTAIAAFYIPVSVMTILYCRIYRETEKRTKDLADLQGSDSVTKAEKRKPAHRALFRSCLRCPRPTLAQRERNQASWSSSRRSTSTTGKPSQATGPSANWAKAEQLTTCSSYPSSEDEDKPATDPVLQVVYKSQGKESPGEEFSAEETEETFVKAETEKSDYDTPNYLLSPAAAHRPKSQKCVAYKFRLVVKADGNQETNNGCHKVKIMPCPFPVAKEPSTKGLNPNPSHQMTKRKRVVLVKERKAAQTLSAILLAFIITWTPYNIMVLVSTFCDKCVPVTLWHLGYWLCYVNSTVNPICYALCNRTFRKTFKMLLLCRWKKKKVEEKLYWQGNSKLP

Y1 (h) = biological target: T5, Y1 (h) (Homo sapiens, UniProt P25929); test: Receptor binding screen, [^125I]peptide YY, SK-N-MC cells; conditions: 10 uM Concentration of Compound I-1-Z; read-out: Mean Value, percent inhibition of control specific binding: Y1 (h)
T5 construct: SK-N-MC cells; endogenous in cells; host or cells: SK-N-MC cells

M4 (h) = biological target: T6, M4 (h) (Homo sapiens, UniProt P08173); test: Receptor binding screen, [^3H]4-DAMP; conditions: 10 uM Concentration of Compound I-1-Z; read-out: Mean Value, percent inhibition of control specific binding: M4 (h)
T6 construct: expressed in transfected cells; host or cells: CHO cells
T6 sequence (P08173 whole entry): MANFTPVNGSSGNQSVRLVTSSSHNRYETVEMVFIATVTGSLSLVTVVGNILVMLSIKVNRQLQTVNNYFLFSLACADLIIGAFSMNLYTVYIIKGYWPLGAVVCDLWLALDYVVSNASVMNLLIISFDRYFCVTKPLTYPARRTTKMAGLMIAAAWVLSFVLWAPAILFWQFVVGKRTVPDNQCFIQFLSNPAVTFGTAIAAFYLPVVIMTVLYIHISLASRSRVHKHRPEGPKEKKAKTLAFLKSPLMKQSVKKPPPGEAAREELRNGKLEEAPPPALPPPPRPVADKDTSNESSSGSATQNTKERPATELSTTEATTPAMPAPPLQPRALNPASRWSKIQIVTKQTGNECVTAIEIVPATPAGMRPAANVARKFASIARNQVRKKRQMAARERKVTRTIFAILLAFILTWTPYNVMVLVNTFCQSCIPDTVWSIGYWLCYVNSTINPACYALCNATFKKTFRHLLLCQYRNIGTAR

H1 (h) = biological target: T7, H1 (h) (Homo sapiens, UniProt P35367); test: Receptor binding screen, [^3H]pyrilamine; conditions: 10 uM Concentration of Compound I-1-Z; read-out: Mean Value, percent inhibition of control specific binding: H1 (h)
T7 construct: expressed in transfected cells; host or cells: HEK-293 cells
T7 sequence (P35367 whole entry): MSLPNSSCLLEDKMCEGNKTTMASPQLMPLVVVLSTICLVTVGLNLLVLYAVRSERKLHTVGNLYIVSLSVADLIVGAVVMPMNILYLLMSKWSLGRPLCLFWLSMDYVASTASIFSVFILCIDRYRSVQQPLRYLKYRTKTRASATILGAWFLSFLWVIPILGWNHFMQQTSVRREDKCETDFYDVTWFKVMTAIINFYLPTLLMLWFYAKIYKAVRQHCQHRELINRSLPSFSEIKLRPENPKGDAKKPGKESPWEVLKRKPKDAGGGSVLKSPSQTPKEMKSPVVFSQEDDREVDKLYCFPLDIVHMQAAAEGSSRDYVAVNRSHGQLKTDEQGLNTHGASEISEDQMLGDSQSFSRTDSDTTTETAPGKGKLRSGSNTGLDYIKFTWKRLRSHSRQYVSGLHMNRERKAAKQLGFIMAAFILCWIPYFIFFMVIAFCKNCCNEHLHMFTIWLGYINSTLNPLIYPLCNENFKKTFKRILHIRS

BZD (central) = test: Receptor binding screen, [^3H]flunitrazepam; set-up: species or system rat; conditions: 10 uM Concentration of Compound I-1-Z
AT2 (h) = biological target: T8, AT2 (h) (Homo sapiens, UniProt P50052); test: Receptor binding screen, [^125I]CGP 42112A; conditions: 10 uM Concentration of Compound I-1-Z; read-out: Mean Value, percent inhibition of control specific binding: AT2 (h)
T8 construct: expressed in transfected cells; host or cells: Hela cells
T8 sequence (P50052 whole entry): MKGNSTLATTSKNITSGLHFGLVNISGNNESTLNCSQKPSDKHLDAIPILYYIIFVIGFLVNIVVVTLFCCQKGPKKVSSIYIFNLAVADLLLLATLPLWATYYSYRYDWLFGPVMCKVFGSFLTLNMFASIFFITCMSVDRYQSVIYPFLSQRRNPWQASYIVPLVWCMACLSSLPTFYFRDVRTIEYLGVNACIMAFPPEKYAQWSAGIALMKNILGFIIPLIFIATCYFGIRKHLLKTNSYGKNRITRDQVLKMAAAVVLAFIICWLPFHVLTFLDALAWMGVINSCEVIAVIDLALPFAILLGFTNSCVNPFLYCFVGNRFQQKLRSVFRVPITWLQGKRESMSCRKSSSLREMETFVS

δ2 (h) (DOP) = biological target: T9, δ2 (h) (DOP) (Homo sapiens, UniProt P41143); test: Receptor binding screen, [^3H]DADLE; conditions: 10 uM Concentration of Compound I-1-Z; read-out: Mean Value, percent inhibition of control specific binding: δ2 (h) (DOP)
T9 construct: expressed in transfected cells; host or cells: CHO cells
Description: as §1

α1 (non-selective) = test: Receptor binding screen, [^3H]prazosin; set-up: species or system rat; conditions: 10 uM Concentration of Compound I-1-Z
Description: as §1

CCR1 (h) = biological target: T10, CCR1 (h) (Homo sapiens, UniProt P32246); test: Receptor binding screen, [^125I]MIP-1α; conditions: 10 uM Concentration of Compound I-1-Z; read-out: Mean Value, percent inhibition of control specific binding: CCR1 (h)
T10 construct: expressed in transfected cells; host or cells: HEK-293 cells

[1] = test system: Ca^2+ channel (L, verapamil site) (phenylalkylamines); test: Receptor binding screen, [^3H](−)D 888; set-up: species or system rat; conditions: 10 uM Concentration of Compound I-1-Z
SK^+Ca channel = test: Receptor binding screen, [^125I]apamin; set-up: species or system rat; conditions: 10 uM Concentration of Compound I-1-Z
Description: as §1

α2 (non-selective) = test: Receptor binding screen, [^3H]RX 821002; set-up: species or system rat; conditions: 10 uM Concentration of Compound I-1-Z
Description: as §1

5-HT1A (h) = biological target: T11, 5-HT1A (h) (Homo sapiens, UniProt P08908); test: Receptor binding screen, [^3H]8-OH-DPAT; conditions: 10 uM Concentration of Compound I-1-Z; read-out: Mean Value, percent inhibition of control specific binding: 5-HT1A (h)
T11 construct: expressed in transfected cells; host or cells: HEK-293 cells
T11 sequence (P08908 whole entry): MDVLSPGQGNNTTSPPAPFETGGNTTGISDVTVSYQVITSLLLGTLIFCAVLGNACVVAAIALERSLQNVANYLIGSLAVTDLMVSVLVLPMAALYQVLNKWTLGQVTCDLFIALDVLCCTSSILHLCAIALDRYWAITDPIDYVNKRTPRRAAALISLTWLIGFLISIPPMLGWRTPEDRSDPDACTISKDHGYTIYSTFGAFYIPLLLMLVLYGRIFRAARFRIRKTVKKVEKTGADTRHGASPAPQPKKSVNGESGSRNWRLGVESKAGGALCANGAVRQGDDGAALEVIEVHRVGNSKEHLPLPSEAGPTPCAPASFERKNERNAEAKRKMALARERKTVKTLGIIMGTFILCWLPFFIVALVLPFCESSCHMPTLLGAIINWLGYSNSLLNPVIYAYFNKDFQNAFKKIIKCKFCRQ

PCP = test: Receptor binding screen, [^3H]TCP; set-up: species or system rat; conditions: 10 uM Concentration of Compound I-1-Z
AT1 (h) = biological target: T12, AT1 (h) (Homo sapiens, UniProt P30556); test: Receptor binding screen, [^125I][Sar^1,Ile^8]-ATII; conditions: 10 uM Concentration of Compound I-1-Z; read-out: Mean Value, percent inhibition of control specific binding: AT1 (h)
T12 construct: expressed in transfected cells; host or cells: CHO cells
T12 sequence (P30556 whole entry): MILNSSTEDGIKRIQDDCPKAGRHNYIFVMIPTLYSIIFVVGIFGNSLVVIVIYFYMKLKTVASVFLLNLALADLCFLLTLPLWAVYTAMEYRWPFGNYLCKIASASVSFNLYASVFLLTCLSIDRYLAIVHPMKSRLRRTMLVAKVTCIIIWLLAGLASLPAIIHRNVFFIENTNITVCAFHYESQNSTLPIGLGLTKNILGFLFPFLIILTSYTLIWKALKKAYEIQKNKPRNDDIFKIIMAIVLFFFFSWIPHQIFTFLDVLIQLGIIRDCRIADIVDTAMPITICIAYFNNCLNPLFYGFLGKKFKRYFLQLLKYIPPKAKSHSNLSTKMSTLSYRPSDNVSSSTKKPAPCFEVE

P2X = test: Receptor binding screen, [^3H]α,β-MeATP, rat urinary bladder; conditions: 10 uM Concentration of Compound I-1-Z
PACAP (PAC1) (h) = biological target: T13, PACAP (PAC1) (h) (Homo sapiens, UniProt P41586); test: Receptor binding screen, [^125I]PACAP1-27; conditions: 10 uM Concentration of Compound I-1-Z; read-out: Mean Value, percent inhibition of control specific binding: PACAP (PAC1) (h)
T13 construct: expressed in transfected cells; host or cells: CHO cells

CB1 (h) = biological target: T14, CB1 (h) (Homo sapiens, UniProt P21554); test: Receptor binding screen, [^3H]CP 55940; conditions: 10 uM Concentration of Compound I-1-Z; read-out: Mean Value, percent inhibition of control specific binding: CB1 (h)
T14 construct: expressed in transfected cells; host or cells: CHO cells
T14 sequence (P21554 whole entry): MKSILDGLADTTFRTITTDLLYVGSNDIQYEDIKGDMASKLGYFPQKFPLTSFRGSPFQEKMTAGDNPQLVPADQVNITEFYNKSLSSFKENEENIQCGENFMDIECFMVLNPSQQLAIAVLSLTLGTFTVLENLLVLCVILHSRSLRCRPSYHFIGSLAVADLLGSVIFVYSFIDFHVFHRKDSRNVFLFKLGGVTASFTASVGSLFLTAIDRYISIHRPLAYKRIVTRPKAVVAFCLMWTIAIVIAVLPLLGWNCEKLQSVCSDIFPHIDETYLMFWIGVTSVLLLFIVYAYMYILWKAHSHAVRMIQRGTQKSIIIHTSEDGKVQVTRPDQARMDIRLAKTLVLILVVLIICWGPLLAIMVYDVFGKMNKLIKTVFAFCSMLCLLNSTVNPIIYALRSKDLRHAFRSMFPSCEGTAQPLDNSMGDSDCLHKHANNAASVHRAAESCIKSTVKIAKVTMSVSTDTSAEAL

GABA (non-selective) = test: Receptor binding screen, [^3H]GABA; set-up: species or system rat; conditions: 10 uM Concentration of Compound I-1-Z
Description: as §1

NK1 (h) = biological target: T15, NK1 (h) (Homo sapiens, UniProt P25103); test: Receptor binding screen, [^125I]BH-SP, U-373MG cells; conditions: 10 uM Concentration of Compound I-1-Z; read-out: Mean Value, percent inhibition of control specific binding: NK1 (h)
T15 construct: U-373MG cells; endogenous in cells; host or cells: U-373MG cells
T15 sequence (P25103 whole entry): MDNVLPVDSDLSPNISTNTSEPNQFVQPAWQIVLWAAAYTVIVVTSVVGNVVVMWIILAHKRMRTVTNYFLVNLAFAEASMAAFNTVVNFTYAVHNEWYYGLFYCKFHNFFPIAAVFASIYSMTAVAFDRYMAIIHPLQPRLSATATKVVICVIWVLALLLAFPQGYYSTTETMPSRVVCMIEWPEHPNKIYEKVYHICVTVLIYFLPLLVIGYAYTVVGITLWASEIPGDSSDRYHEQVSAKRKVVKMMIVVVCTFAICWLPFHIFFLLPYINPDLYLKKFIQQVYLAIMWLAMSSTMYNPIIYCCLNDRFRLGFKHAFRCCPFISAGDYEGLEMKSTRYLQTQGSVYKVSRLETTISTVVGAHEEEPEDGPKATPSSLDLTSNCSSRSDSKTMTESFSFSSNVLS

Molecule `COc1ccc(C/C(=C/F)CN)cc1.Cl` [Compound I-1-Z, (Z)-3-Fluoro-2-(4-methoxybenzyl)-allylamine hydrochloride] has an inhibition at 10 µM (5-HT7 (h)) of 13%, an inhibition at 10 µM (ORL1 (h) (NOP)) of -9% and an inhibition at 10 µM (β1 (h)) of 5%. For the same molecule, the inhibition at 10 µM (M5 (h)) was 27%, the inhibition at 10 µM (Y1 (h)) was -2% and the inhibition at 10 µM (M4 (h)) was 22%. The inhibition at 10 µM (H1 (h)) was 3%, the “Mean Value, percent inhibition of control specific binding: BZD (central)” value (BZD (central)) was 14% and the inhibition at 10 µM (AT2 (h)) was -19%. The inhibition at 10 µM (δ2 (h) (DOP)) was 0%, the “Mean Value, percent inhibition of control specific binding: α1 (non-selective)” value (α1 (non-selective)) was 8% and the inhibition at 10 µM (CCR1 (h)) was 3%. The “Mean Value, percent inhibition of control specific binding: Ca^2+ channel (L, verapamil site) (phenylalkylamines)” value [1] was 14%, the “Mean Value, percent inhibition of control specific binding: SK^+Ca channel” value (SK^+Ca channel) was 4% and the “Mean Value, percent inhibition of control specific binding: α2 (non-selective)” value (α2 (non-selective)) was 23%. For the same molecule, the inhibition at 10 µM (5-HT1A (h)) was 34%, the “Mean Value, percent inhibition of control specific binding: PCP” value (PCP) was −12% and the inhibition at 10 µM (AT1 (h)) was 10%. For the same molecule, the “Mean Value, percent inhibition of control specific binding: P2X” value (P2X) was −2%, the inhibition at 10 µM (PACAP (PAC1) (h)) was 5% and the inhibition at 10 µM (CB1 (h)) was 14%. For the same molecule, the “Mean Value, percent inhibition of control specific binding: GABA (non-selective)” value (GABA (non-selective)) was −19% and the inhibition at 10 µM (NK1 (h)) was -6%.
